Source: PubChem BioAssay (NCI)
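Exposure lasted 48 hours, with cells grown in 96-well plates and compounds tested at five concentrations. TGI is the concentration that stops growth completely.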

Tests used:
Assay in all cases: NCI anticancer screen, dose series, 48 h
NCI/ADR-RES ovarian = test system: NCI/ADR-RES ovarian
SF-539 CNS = test system: SF-539 CNS
MDA-N = test system: MDA-N
A498 renal = test system: A498 renal
K-562 leukemia = test system: K-562 leukemia
MDA-MB-435 = test system: MDA-MB-435
HCC-2998 colon = test system: HCC-2998 colon
SK-OV-3 ovarian = test system: SK-OV-3 ovarian
CCRF-CEM leukemia = test system: CCRF-CEM leukemia
HCT-116 colon = test system: HCT-116 colon
DU-145 prostate = test system: DU-145 prostate

| Structure (SMILES) | TGI (NCI/ADR-RES ovarian) [µM] | TGI (SF-539 CNS) [µM] | TGI (MDA-N) [µM] | TGI (A498 renal) [µM] | TGI (K-562 leukemia) [µM] | TGI (MDA-MB-435) [µM] | TGI (HCC-2998 colon) [µM] | TGI (SK-OV-3 ovarian) [µM] | TGI (CCRF-CEM leukemia) [µM] | TGI (HCT-116 colon) [µM] | TGI (DU-145 prostate) [µM] |
| --- | --- | --- | --- | --- | --- | --- | --- | --- | --- | --- | --- |
| S=c1[nH]c(=S)c2cc(Sc3ccc4[nH]c(=S)[nH]c(=S)c4c3)ccc2[nH]1 | > 100 | 82.8 | > 100 | 44 | > 100 | > 100 | > 100 | 60 | 80.9 | > 100 | > 100 |
| OC1COC(n2c3ccc(Br)cc3c3ccc4c5ccccc5[nH]c4c32)C(O)C1O (configuration not stated) | 19.1 | 16.2 | 15.2 | 13.9 | 13.6 | 16.1 | 11.4 | 17.7 | 19.3 | 12 | 12.6 |
| CC[C@@H](/C=C\CCC1(C[C@H](O)CCC=C(C)C)OCCO1)O[Si](C(C)C)(C(C)C)C(C)C | 53.9 | 34.8 | > 100 | 81.3 | 60 | > 100 | 31.9 | 41.8 | > 100 | 38.6 | > 100 |
| CC(C)CCn1c(=O)c2c(=O)[nH][nH]c2c2ccccc21 | > 100 | > 100 | > 100 | > 100 | > 100 | > 100 | > 100 |  | > 100 | > 100 | > 100 |
| O[C@@H]1C[C@@H]2N[C@@](O)(C[C@@H]2O)[C@H]1O | > 100 | > 100 | > 100 | > 100 | > 100 | > 100 | > 100 | > 100 | > 100 | > 100 | > 100 |
| Cc1cccc(NC(=S)Nc2ccccc2Cl)n1 | > 100 | > 100 | > 100 | 64.6 | > 100 | > 100 |  | 51.8 | > 100 | > 100 | > 100 |
| C=CC[C@H]1[C@H](O[Si](C)(C)C(C)(C)C)C=CC(=O)[C@@H]1CC(=O)N(Cc1ccccc1)Cc1ccccc1 | 80.6 | > 100 | > 100 | > 100 | > 100 | > 100 | 73.6 | > 100 | > 100 | 54.5 | > 100 |
| COC(=O)/C=c1/c2ccccc2n2nc3ccccc3c12 | > 100 | > 100 | > 100 | 93.3 | > 100 | > 100 | > 100 | 61.3 | > 100 | > 100 | > 100 |
| Cc1ccc2c(n1)C(=O)c1ccccc1C2=O | 60.1 | > 87.1 | > 59.9 | > 88.4 | > 84 | 32.6 | > 92.2 | > 100 | > 100 | 61.8 | 36.4 |
| Cn1c(-c2cccs2)cc(-c2cccs2)c1-c1ccsc1 | > 100 | > 100 | > 100 | > 100 | > 100 | > 100 | > 100 | > 100 | > 100 | > 100 | > 100 |
| Cc1ccc(Nc2cc(=O)[nH]c(=S)[nH]2)cc1 | > 100 | > 100 | > 100 | > 100 | > 100 | > 100 | > 100 | > 100 | > 100 | > 100 | > 100 |
| CC(C)C1OC(=O)/C=C/C=C/C=C/C=C/C=C/CC(O)CC(O)CC(O)CC(O)CC(O)CC(O)CC(O)CC(O)/C=C/C1C (configuration not stated) | > 100 | > 100 | > 100 | > 100 | > 100 | > 100 | > 100 |  | > 100 | > 100 | > 100 |
| COC(=O)c1csc(-c2nc(CCNC(=O)OC(C)(C)C)sc2Br)n1 | > 100 | > 100 | > 100 | > 100 | > 100 | > 100 | > 100 | > 100 | > 100 | > 100 | > 100 |
| C[C@H](O)C1CC(Cn2nnc3c(N)ncnc32)C1(C)C (some centres not stated) | > 100 | > 100 | > 100 | > 100 | 0.0411 | > 100 | > 100 | > 100 | > 100 | > 100 | > 100 |
| CNC1=CC(=O)C2=C(C1=O)[C@H]1CC[C@]3(C)C(=O)CC[C@H]3[C@@H]1CC2 | 42.1 | 32.3 | 25 | 43.4 | > 57.5 | 13.1 | 31.7 | > 100 | 30.4 | 35.7 | 28.8 |
| CNC(=S)N/N=C/c1cccc(C)n1 | 63.3 | 39.7 | > 100 | > 71 | > 100 | > 100 | > 100 | > 100 | > 73.6 | > 100 | > 83.2 |
| COC(=O)c1c(C)cccc1CC1Cc2c(C)cccc2C1=O (configuration not stated) | 64.2 | > 100 | > 100 | 73.7 | > 100 | 65.1 | > 100 | > 100 | 90.2 | > 100 | > 100 |
| COc1cc(COC(=O)N2CCC2C(=O)O)c([N+](=O)[O-])cc1OC (configuration not stated) | > 100 | > 100 | > 100 | > 100 | > 100 | > 100 | > 100 | > 100 | > 100 | > 100 | > 100 |
| COC(=O)CCC12CCC(O1)c1ccccc12 (configuration not stated) | > 100 | > 100 | > 100 | > 100 | > 100 | > 100 | > 100 | > 100 | > 100 | > 100 | > 100 |
| N#Cc1ccc(OCc2nc3cc(C(F)(F)F)ccc3nc2-c2ccccc2)cc1 | > 100 | > 100 | > 100 | > 100 |  | > 100 | > 100 |  | > 100 | > 100 | > 100 |
| COC(=O)/N=[N+](\[O-])C(c1ccc(OC)cc1)C1CCCCC1 (configuration not stated) | 15.8 | > 48.3 | 12 | 25.3 | 44.8 | 26.4 | 16.1 | 18.2 | 20.6 | 4.41 | 10.8 |

| Structure (SMILES) | TGI (NCI/ADR-RES ovarian) [µM] | TGI (SF-539 CNS) [µM] | TGI (MDA-N) [µM] | TGI (A498 renal) [µM] | TGI (K-562 leukemia) [µM] | TGI (MDA-MB-435) [µM] | TGI (HCC-2998 colon) [µM] | TGI (SK-OV-3 ovarian) [µM] | TGI (CCRF-CEM leukemia) [µM] | TGI (HCT-116 colon) [µM] | TGI (DU-145 prostate) [µM] |
| --- | --- | --- | --- | --- | --- | --- | --- | --- | --- | --- | --- |
| Cc1nnc2n1-c1ccccc1C(=S)N1CSCC21 (configuration not stated) | > 100 |  | > 100 | > 100 | > 100 | > 100 | > 100 | > 100 | > 100 | > 100 | > 100 |
| CC1(C)Oc2ccc3c(=O)cc(-c4ccc(F)cc4)oc3c2C1C(=O)O (configuration not stated) | > 100 | > 100 | > 100 | > 100 | > 100 | > 100 | > 100 | > 100 | > 100 | > 100 | > 100 |
| COCc1cc2c(cc1/C=C/[N+](=O)[O-])OCO2 | 47 | 44.9 | 32.6 | 30.8 | > 100 | 33.2 | 32 | 31.9 | 37.7 | 34 | 34.4 |
| N#CC1(C#N)NC(c2ccsc2)C(C#N)(C#N)NC1c1ccsc1 (configuration not stated) | > 100 | > 100 | > 100 | > 100 | > 100 | > 100 | > 100 | > 100 | > 100 | > 100 | > 100 |
| Nc1nc(Cl)cc(Nc2cc(Cl)cc(Cl)c2)n1 | 44 | 33.9 | 48.8 | 44.3 | 81.3 | 37.1 | 32.8 | 35.8 | 51.7 | 33.3 | 47.3 |
| Clc1ccc(C2NN=C3c4ccccc4OCC32)cc1 (configuration not stated) | 6.14 | 7.17 | 2.56 | 92.6 | > 22.9 | > 21.3 | 13.5 | > 100 | > 74.8 | > 36.4 | > 95.4 |
| CC[C@H]1OC([C@H](O)C/C=C\C#C[Si](C)(C)C)C/C=C\C[C@H]1O[Si](C)(C)C(C)(C)C (some centres not stated) | > 100 |  | > 100 | > 100 | > 100 | > 100 | > 100 | > 100 | > 100 | > 100 | > 100 |
| COc1ccc(CCNC(=O)Cc2cc(OC)c(OC)cc2CO)cc1OC | > 100 | > 100 | > 100 | > 100 | > 100 | > 100 | > 100 | > 100 | > 100 | > 100 | > 100 |
| CCCCOC(=O)C(O)Cc1ccoc1 (configuration not stated) | > 100 | > 100 | > 100 | > 100 | > 100 | > 100 | > 100 | > 100 | > 100 | > 100 | > 100 |
| C[Si](C)(OCCS(=O)(=O)O)C1S(=O)(=O)OCCOS1(=O)=O | > 100 | > 100 | > 100 | > 100 | > 100 | > 100 | > 100 | > 100 | > 100 | > 100 | > 100 |
| N/C(=N/n1c(=S)[nH]c2ccccc2c1=O)Nn1c(=S)[nH]c2ccccc2c1=O | > 100 | 56.2 | 85.4 | > 100 | 83.6 | > 100 | > 100 | > 100 | 48.2 | 30.4 | > 100 |
| COCCOCCOC1=C(Cl)C(=O)c2c(O)ccc(O)c2C1=O | 9.14 | 3.69 | 9.63 | 13.9 |  | 3.83 | 34 | 33.3 | 45.1 | 2.46 | 22.4 |
| Cc1nc2c(sc3nc4ccccc4n32)c(=O)[nH]1 | > 100 | > 100 | > 100 | > 100 |  | > 100 | > 100 | > 100 | > 100 | > 100 | > 100 |
| Brc1ccc2[nH]cc(-c3nc(-c4c[nH]c5ccccc45)cs3)c2c1 | 11.2 | 10.8 | 9.35 | 8.47 | > 20.1 | 13.3 | 4.17 | 21.4 | > 26.2 | 7.15 | 10.4 |
| Cc1cccc2c1NC(=S)[C@@H]1CCCN1C2=O | > 100 | > 100 | > 100 | > 100 | > 100 | > 100 | > 100 | > 100 | > 100 | > 100 | > 100 |
| COc1ccc2c3c1OC1c4[nH]c5ccccc5c4CC4(O)C(C2)N(C)CCC314 (configuration not stated) | > 100 |  | 32.7 | 31.6 | 37.2 | 35.7 | 31 | > 100 | 52.8 | > 100 | > 100 |
| COc1ccc(-c2cc(-c3cc(OC)c(OC)c(OC)c3)cc(-c3cc4ccccc4oc3=O)n2)cc1 | 31.6 | 7.88 | 68 | 17.6 | > 100 | > 100 | 80.5 | 14.5 | > 100 | 18.2 | 56.1 |
| O=c1[nH]nc(Cc2ccccc2)n1Nc1ccccc1 | > 100 | > 100 | > 100 | > 100 | > 100 | > 100 | > 100 |  | > 100 | > 100 | > 100 |
| C=CC[C@H](C)CCC(=O)N1[C@H]2CC3CC[C@@]2(CS1(=O)=O)C3(C)C | > 100 |  | > 100 | > 100 |  | > 100 | > 100 | > 100 | 59.2 | > 100 | > 100 |
| CC1C[C@]2(C)C(=O)N(c3ccccc3)C(=N)[C@@H]2N(C)c2ccccc21 (some centres not stated) | > 100 | > 100 | > 100 | > 100 | > 100 | > 100 | > 100 |  | > 100 | > 100 | > 100 |
